Measurements: patent US8592468B2, “Bacterial thioredoxin reductase inhibitors and methods for use thereof” (Thioredoxin Systems AB, priority 2006, dated 2013)
≈ marks a conversion by molar mass, not a printed value.

Columns and labels:
[1] = test system: Mycobacterium tuberculosis; assay: Inhibition of Mycobacterium tuberculosis by ebselen, radiometric BACTEC 460 system; format: cell-based
[2] = test system: wild type DHB4 E. coli; assay: Bacterial inhibition by ebselen derivates, MIC; settings: Escherichia coli, DHB4E.COLI, 4 h, read-out: MIC for wild type DHB4 E. coli
Protocol: E. coli DHB4 strains wt, gshA^−, gor^−, oxyR^− were cultured overnight in LB medium. […] OD 600 was detected and DMSO was used as the control. […] The data are the means of two experiments.

[3] = target: T1, E. coli TrxR (Escherichia coli (strain K12), UniProt P0A9P4); format: biochemical
Protocol: In FIG. 6A, 10 μM of ebselen (▴) and 10 μM of PZ25 (▪) were used as substrate of 25 nM calf thymus TrxR. In FIG. 6B, 10 μM of PZ25 was used as substrate for 10 nM calf thymus TrxR (◯) and 10 nM of E. coli TrxR (●). Reactions were started by adding enzymes in cuvettes containing 500 μl TE buffer with 100 μM NADPH, of which the consumption were followed by the changes of the absorption at 340 nm against identical blank without enzymes.
Reactions were started by adding enzymes to cuvettes containing 500 μl TE buffer with 100 μM NADPH and 16 μM compounds. The NADPH consumption was followed by the changes of the absorption at 340 nm against identical blank without enzymes.
(§1) The activity of the enzyme was determined at room temperature using an Ultrospec 3000 UV/Visual spectrophotometer (Amersham Biosciences). […] The enzyme-catalysed reactions were followed at 340 nm using the standard calculation of NADPH oxidation to NADP^+ with a molar extinction coefficient of 6200 M^−1 cm^−1 (32, 34). The conditions of the assay of bacterial thioredoxin reductase have been described (32, 34) using either 1 mM DTNB or 160 μM insulin as a substrate. In DTNB coupled assays, 240 μM NADPH and 1 mM DTNB were used in the TE buffer and formation of the TNB was measured at 412 nm, where TNB has an extinction coefficient of 13600 M^−1 cm^−1.
(§2) Further we examined the effect of ebselen in the reduction of disulphide by E. coli Trx and TrxR using both DTNB and insulin as substrates. […] FIGS. 4A and 4B show the effect of ebselen (4A) and ebselen diselenide (4B) on DTNB reduction by E. coli thioredoxin and thioredoxin reductase. Assays in semi-microcuvettes with 0.5 ml solution contained 0.24 mM NADPH, 1 mM DTNB in 50 mM Tris-Cl/1 mM EDTA, pH 7.5 buffer. (A) In the presence of 2 μM (grey filled points), 5 μM (white filled points) and 10 μM (black filled points) of E. coli Trx and 7.6 nM of E. coli TrxR with ebselen at concentrations of zero (squares), 0.5 μM (triangles), 1 μM (rhombus), and 2 μM (rounds), the increase in A412 was measured against a blank. (B) In the presence of 2 μM (grey filled points), 5 μM (white filled points) and 10 μM (black filled points) of E. coli Trx and 10 nM of E. coli TrxR, with ebselen diselenide at concentrations of zero (squares), 1 μM (triangles) and 2 μM (rounds), the increase in A412 was measured against a blank.

[4] = test system: E. coli DHB4 strains; assay: Sensitivity of growth of E. coli DHB4 strains to ebselen (A600); format: cell-based
Protocol: Bacterial cells were grown in 5 mL cultures at 37° C., 120 rpm in 15 mL closed tubes containing Lutria-Bertani (LB) or M9 minimal media supplemented with 50 μg/ml Leu, Ile, 1× basal medium Eagle's vitamin solution (Invitrogen) and 2 μg/mL nicotinic acid. For the experiments regarding sensitivity of growth to ebselen, cells were initially grown overnight at 37° C. at the respective medium. The next day, equal cell numbers (as determined by A600) with dilutions of at least 1:50 were used to start 5 mL cultures containing different concentrations of Ebselen. Ebselen stock solutions were freshly prepared in DMSO. Extra DMSO was added to the cultures so that the total volumes of DMSO were the same per culture even at different final concentrations of Ebselen. Growth inhibition assays were carried out also on M9 minimal plates. The plates were covered with minimal top agar that contained equal cell number for all the strains examined. These were derived from overnight liquid cultures in M9 medium.
Sensitivity to ebselen was measured by inhibition of growth as determined by scattering (absorbance) at 600 nm at different times after inoculation.

[5] = test system: Mammalian TrxR; settings: from reference; cited from earlier work
[6] = target: E. coli ribonucleotide reductase (Escherichia coli (strain K12), UniProt P00452+P69924); assay: Inhibition of E. coli ribonucleotide reductase (data not shown); format: biochemical
[7] = target: E. coli Trx-(SH)2 (Escherichia coli (strain K12), UniProt P0AA25); settings: fluorescence spectroscopy; cited from earlier work
[8] = target: T1, E. coli TrxR; assay: Inhibition of E. coli TrxR reduction of Trx, DTNB coupled assay (Lineweaver-Burk); format: biochemical
Protocol: FIGS. 4A and 4B show the effect of ebselen (FIG. 4A) and ebselen diselenide (FIG. 4B) on DTNB reduction by E. coli thioredoxin and thioredoxin reductase. Assays were contained in 0.50 ml semi-microcuvettes containing 0.24 mM NADPH, 1 mM DTNB in 0.10 M Tris-Cl, pH 8.0, 1 mM EDTA. The increase in A412 was measured against a blank using 10 nM E. coli TrxR in the presence of 2 μM (grey filled points), 5 μM (white filled points), 10 μM (black filled points) E. coli Trx with 0 (squares), 0.5 μM (triangles), 1 μM (rhombus), 2 μM (rounds) of ebselen or ebselen diselenide.
(A) Ebselen concentrations were 0 μM (▴), 0.5 μM (∀), 1 μM (▪) and 2 μM (Δ). […] (B) Ebselen concentrations were 0 μM (▴), 1 μM (▪) and 2 μM (∀).
as §1, §2

T1 sequence (P0A9P4 2-321 limits assumed): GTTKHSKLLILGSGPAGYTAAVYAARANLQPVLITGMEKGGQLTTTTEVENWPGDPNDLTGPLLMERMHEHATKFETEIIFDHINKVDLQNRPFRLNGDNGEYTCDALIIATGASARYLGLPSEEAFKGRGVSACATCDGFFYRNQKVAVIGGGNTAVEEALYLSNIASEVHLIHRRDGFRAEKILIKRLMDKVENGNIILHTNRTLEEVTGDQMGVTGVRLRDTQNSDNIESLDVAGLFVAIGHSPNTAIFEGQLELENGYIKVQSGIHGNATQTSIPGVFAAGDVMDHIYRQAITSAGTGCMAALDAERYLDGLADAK
Chain of E. coli ribonucleotide reductase (P00452 whole entry, looked up): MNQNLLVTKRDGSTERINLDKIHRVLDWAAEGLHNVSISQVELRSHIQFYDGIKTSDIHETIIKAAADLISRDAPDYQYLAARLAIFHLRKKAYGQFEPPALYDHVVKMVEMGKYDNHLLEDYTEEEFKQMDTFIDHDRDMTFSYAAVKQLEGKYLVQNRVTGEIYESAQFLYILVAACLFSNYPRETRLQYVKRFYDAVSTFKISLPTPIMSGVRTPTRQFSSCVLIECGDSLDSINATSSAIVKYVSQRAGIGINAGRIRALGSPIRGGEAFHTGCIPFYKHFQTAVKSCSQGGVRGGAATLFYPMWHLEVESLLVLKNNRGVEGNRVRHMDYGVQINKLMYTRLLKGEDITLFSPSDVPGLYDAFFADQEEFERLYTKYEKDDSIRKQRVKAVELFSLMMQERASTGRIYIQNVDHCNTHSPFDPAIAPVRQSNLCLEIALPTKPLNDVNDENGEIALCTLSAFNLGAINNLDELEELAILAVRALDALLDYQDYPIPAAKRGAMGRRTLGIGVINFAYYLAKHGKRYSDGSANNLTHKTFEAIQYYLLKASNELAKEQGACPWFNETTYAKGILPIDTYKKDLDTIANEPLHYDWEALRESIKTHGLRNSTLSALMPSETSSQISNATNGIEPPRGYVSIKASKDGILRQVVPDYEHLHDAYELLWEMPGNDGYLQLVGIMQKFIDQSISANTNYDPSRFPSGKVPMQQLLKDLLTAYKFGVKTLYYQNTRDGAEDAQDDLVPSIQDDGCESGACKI
Chain of E. coli ribonucleotide reductase (P69924 whole entry, looked up): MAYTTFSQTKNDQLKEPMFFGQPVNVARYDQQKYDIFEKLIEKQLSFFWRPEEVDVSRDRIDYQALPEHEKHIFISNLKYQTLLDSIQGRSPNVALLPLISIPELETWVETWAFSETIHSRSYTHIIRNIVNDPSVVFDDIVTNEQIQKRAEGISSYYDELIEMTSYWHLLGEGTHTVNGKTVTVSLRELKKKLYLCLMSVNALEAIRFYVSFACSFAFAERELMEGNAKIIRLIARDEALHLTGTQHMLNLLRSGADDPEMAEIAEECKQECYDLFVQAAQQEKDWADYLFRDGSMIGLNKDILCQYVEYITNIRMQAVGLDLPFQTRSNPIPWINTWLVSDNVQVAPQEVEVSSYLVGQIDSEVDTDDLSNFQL

Compound: O=c1c2ccccc2[se]n1-c1ccccc1 [EbSe 6, 2-phenyl-1,2-benzisoselenazol-3(2H)-one]
- MIC ([1]; Mycobacterium tuberculosis): < 20 µg/mL
- Sensitivity to ebselen ([1]; strain BTB 98-310 (MDR), ebselen 10 μg/ml): R
- Sensitivity to ebselen ([1]; strain BTB 98-310 (MDR), ebselen 20 μg/ml): S
- Sensitivity to ebselen ([1]; strain BTB 98-310 (MDR), ebselen 40 μg/ml): S
- Sensitivity to ebselen ([1]; strain BTB 98-310 (MDR), ebselen 80 μg/ml): S
- Sensitivity to ebselen ([1]; strain H37Rv, ebselen 10 μg/ml): R
- Sensitivity to ebselen ([1]; strain H37Rv, ebselen 20 μg/ml): S
- Sensitivity to ebselen ([1]; strain H37Rv, ebselen 40 μg/ml): S
- Sensitivity to ebselen ([1]; strain H37Rv, ebselen 80 μg/ml): S
- Sensitivity to ebselen ([1]; strain Panel3:24 (MDR), ebselen 10 μg/ml): R
- Sensitivity to ebselen ([1]; strain Panel3:24 (MDR), ebselen 20 μg/ml): S
- Sensitivity to ebselen ([1]; strain Panel3:24 (MDR), ebselen 40 μg/ml): S
- Sensitivity to ebselen ([1]; strain Panel3:24 (MDR), ebselen 80 μg/ml): S
- MIC [2]: 40 µM (≈ 11 µg/mL)
- oxidation of NADPH when directly added to E. coli TrxR and NADPH [3]: no oxidations of NADPH
- wild type bacteria compared with gor^− and gshA^− strains [4]: more resistant
- sensitivity of gshA^−trxA^− strain ([4]; LB medium): more sensitive
- sensitivity of strain trxA^−C^− compared with wild type ([4]; LB medium): similar, if not less
- growth of gor^− and gshA^− strains in presence of ebselen ([4]; minimal media (M9)): hardly grew
- Km [5]: 2.5 µM
- kcat [5]: 9.8 s⁻¹
- kcat/KM [5]: 3.92e+06 M⁻¹ s⁻¹
- inhibition of E. coli ribonucleotide reductase [6]: effective direct inhibitor
- second-order rate constant of reaction with reduced E. coli Trx [7]: 2e+07 M⁻¹ s⁻¹
- inhibition of E. coli TrxR (in words) [8]: strongly inhibited
- Ki ([8]; Ki (competitive inhibitor of Trx reduction by E. coli TrxR), from Lineweaver-Burk slopes): 150 nM
